Biological target: recombinant full-length human BTK kinase (Homo sapiens (Human), UniProt Q06187)
Assay: BTK kinase assay: ADP generation assay (ADP-Glo)
Type: biochemical
Settings: 60 nM BTK, 1.6 μM ATP, 20 μM MBP substrate, 60 min at room temperature
Protocol: The primary assay for compound inhibitory activity was the ADP generation assay described herein. Test compounds were diluted to desired concentrations in kinase reaction buffer and briefly incubated with recombinant full-length human BTK kinase with a (His)6 tag (81.3 kDa; Invitrogen Corporation, Carlsbad, Calif.). The assay as described is based on volumes used in a standard 384 well format using solid, white-wall plates. The reaction was subsequently initiated by the addition of ATP and myelin basic protein (MBP) substrate (Millipore Corporation, Waltham, Mass.). Composition of the assay reaction mixture ([…]) was: 5% v/v DMSO, 60 nM BTK, 1.6 μM ATP, and 20 μM MBP substrate. […] Luminescence was measured on an EnVision® microplate reader (PerkinElmer). The amount of luminescence from each reaction is directly correlated with BTK kinase activity. Percent inhibition and IC50 values were calculated by comparing enzyme activity in drug-treated wells to the appropriate controls.
IC50 values are determined using GraphPad Prism 5 software. […]
Activity (IC50) was determined in the BTK assays describe herein above, i.e. either the ADP generation assay and/or the time-resolved FRET assay, and the data are shown in Table III. […]

Sequence of recombinant full-length human BTK kinase (Q06187 whole entry): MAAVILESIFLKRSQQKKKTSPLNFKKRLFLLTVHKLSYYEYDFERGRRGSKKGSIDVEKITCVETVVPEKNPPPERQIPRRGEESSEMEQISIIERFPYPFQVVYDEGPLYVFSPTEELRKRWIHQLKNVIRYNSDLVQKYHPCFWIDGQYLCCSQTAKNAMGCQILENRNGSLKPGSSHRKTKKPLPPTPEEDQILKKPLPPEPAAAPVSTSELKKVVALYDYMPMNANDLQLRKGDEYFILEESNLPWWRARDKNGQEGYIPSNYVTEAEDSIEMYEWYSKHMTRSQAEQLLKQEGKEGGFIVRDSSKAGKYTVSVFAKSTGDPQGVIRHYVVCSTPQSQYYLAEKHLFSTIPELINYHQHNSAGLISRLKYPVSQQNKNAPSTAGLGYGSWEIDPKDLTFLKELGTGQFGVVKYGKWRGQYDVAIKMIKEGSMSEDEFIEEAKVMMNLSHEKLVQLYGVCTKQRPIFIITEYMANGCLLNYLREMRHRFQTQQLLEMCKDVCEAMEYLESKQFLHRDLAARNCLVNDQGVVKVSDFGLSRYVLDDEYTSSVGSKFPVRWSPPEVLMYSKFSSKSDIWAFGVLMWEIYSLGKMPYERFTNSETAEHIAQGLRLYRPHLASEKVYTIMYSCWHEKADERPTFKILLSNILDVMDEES

SMILES: C=CC(=O)Nc1cccc(-c2nc(Nc3ccc(N4CCOCC4)c(OP(=O)(OC(C)C)OC(C)C)c3)ncc2Cl)c1 [Compound 2, 5-((4-(3-acrylamidophenyl)-5-chloropyrimidin-2-yl)amino)-2 - morpholinophenyl diisopropyl phosphate]
- IC50: 3.58 µM

SMILES: C=CC(=O)Nc1cccc(-c2nc(Nc3ccc(N4CCOCC4)c(O)c3)ncc2Cl)c1 [Compound 1, N-(3-(5-chloro-2-((3-hydroxy-4-morpholinophenyl)amino)pyrimidin-4-yl)phenyl)acrylamide]
- IC50: 0.004 µM

Reference: patent US9296703B2, “Substituted N-(3-(pyrimidin-4-yl)phenyl)acrylamide analogs as tyrosine receptor kinase BTK inhibitors” (University of Utah Research Foundation, priority 2012, dated 2016)
